Source: US20250388632A1, “ANNEXIN A1-DERIVED POLYPEPTIDE ANALOGUES” (RESOTHER PHARMA A/S, priority 2022, published 2025)
Several values for one entry are separate records, joined by “and”; a condition that tells them apart may be missing. Equal values may be shown once.

Legend:
monocytes = assay: Whole blood monocyte phagocytosis assay (pHrodo E. coli BioParticles, flow cytometry); assay type: cell-based; settings: human whole blood, 1 h incubation, then pHrodo E. coli BioParticles 30 min, mean of four experiments
Procedure: AnxA1 N-terminal fragments were assessed in whole blood phagocytosis assay. Whole blood from human subjects (45 μL) was incubated for 1 h with control peptide Anxa1 2-50 (100 nM) and test peptides Compound 1 (100 nM), Compound 2 (100 nM) and Compound 3 (30 nM), or vehicle in a 96-well plate. 50 μl pHrodo E. coli BioParticles Conjugate (5 μg/well) was added to the wells, and the plate was incubated at 37° C., 5% CO2 for 30 min. 150 μl of 4% PFA was added, and the plate incubated at 4° C. for 30 min. 30 μL from each well of the 96-well plate was transferred into flow cytometry tubes with 500 μL RPMI 1640 and 1 μL of Vybrant DyeCycle dye. Tubes were incubated for 30 min at 37° C. and 5% CO2, followed by addition of 2.5 mL of RPMI 1640 Medium in each tube.
Samples were acquired on the Attune NxT Flow Cytometer. Monocyte phagocytosis was determined as an increase in pHrodo Green fluorescence relative to control sample.

[1] = test system: polymorphonuclear leukocytes (PMNs); assay: PMN (neutrophil) chemotaxis, Transwell migration, CellTiter Glo readout; assay type: cell-based, human; settings: 10 uM compound in receiver wells; 1 h migration, 37 °C; PMNs from buffy coats of healthy volunteers
Procedure: AnxA1 N-terminal fragments were assessed in polymorphonuclear leukocytes (PMNs) isolated from buffy coats of healthy volunteers. PMNs were resuspended in migration medium (RPMI1640 (ATCC, Cat. No. 30-2001)+0.05% BSA-FAF) to a concentration of 5.5×10^6 cells/mL.
Receiver wells of a Transwell plate were filled with 200 μL of migration medium with 10 uM of compound 1, 2 or 3. Donor plate was inserted and 75 μL of cell suspension was added to upper wells ([…]). Plates were incubated for 1 h (37° C., 5% CO2, 95% humidity). The number of migrated cells was assessed by removing Transwell insert with cells from the plate in order to stop migration, followed by addition of 200 μL CellTiter Glo reagent to lower wells. Plates were incubated for 10 minutes in the dark (at room temperature), and 200 μL was transferred to white 96 well plates (Lumitrac 200). Luminescence was measured by use of EnVision 2104 (Perkin Elmer) (exposition time 0.1 s)
The chemotaxis response was estimated by calculating fold change compared to negative control (vehicle).

Row | Sequence | Fold increase relative to vehicle (monocyte phagocytosis) (monocytes; peptide 100 nM) [fold] | Fold increase relative to vehicle (PMN chemotaxis) [1] | Fold increase relative to vehicle (monocyte phagocytosis) (monocytes; peptide 100 nM, listed as AnxA1 2-50) [fold] | Fold increase relative to vehicle (monocyte phagocytosis) (monocytes; peptide 30 nM) [fold]
1 | AMVSEFLKQAWFIENEEQEYVQTLKSSKGGPGS (Val24Leu variant of AnxA1 fragment; MISC_FEATURE - Val24Leu variant of AnxA1 fragment) [Compound 2] | 2.8 | 2 fold and 2.0 fold |  | 
2 | AMVSEFLKQAWFIENEEQEYVQTLKSSK (Val24Leu variant of AnxA1 fragment; MISC_FEATURE - Val24Leu variant of AnxA1 fragment) [Compound 1] | 2.6 | 3 fold and 3.1 fold |  | 
3 | AMVSEFLKQAWFIENEEQEYVQTVKSSKGGPGSAVSPYPTFNPSSDVAA (Synthetic sequence having some homology with human annexin 1) [Anxa1 2-50, reference compound] | 1.9 |  | ~2 | 
4 | AMVSEFLKQAWFIENEEQEYVQTLKSSKGGPGSAVSPY (Val24Leu variant of AnxA1 fragment; MISC_FEATURE - Val24Leu variant of AnxA1 fragment) [Compound 3] |  | 1.6 fold |  | 2.9
